Active and inactive are the calls of the source.
Key:
[1] = target: T1, Hepatocyte nuclear factor 4-alpha (Homo sapiens, UniProt P41235); assay type: functional, cell-based;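 further: biochemical luminescence-based dose-response counterscreen measuring inhibition of HNF4 dimerization, run alongside a screen for blockers of ABHD5–perilipin-5 interaction; split luciferase complementation of HNF4 fusion proteins in cell lysate measuring dimerization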
T1 sequence (P41235 whole entry): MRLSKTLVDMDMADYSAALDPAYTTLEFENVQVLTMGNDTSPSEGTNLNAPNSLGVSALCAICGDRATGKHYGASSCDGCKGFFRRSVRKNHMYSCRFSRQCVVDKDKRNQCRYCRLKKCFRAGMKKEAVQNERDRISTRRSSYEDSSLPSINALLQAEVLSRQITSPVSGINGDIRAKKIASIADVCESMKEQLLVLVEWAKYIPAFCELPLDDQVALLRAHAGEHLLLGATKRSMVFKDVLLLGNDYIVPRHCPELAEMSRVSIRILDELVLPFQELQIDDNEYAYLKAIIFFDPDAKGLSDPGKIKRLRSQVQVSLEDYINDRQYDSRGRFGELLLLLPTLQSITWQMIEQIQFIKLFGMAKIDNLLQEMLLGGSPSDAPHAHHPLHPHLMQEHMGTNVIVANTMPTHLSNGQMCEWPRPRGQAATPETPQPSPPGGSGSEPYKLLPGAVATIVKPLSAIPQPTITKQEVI

[2] = target: T2, Rac GTPase-activating protein 1 (Homo sapiens, UniProt Q9H0H5); assay: MgcRacGAP GTPase-activating activity inhibitors, confirmation, biochemical, ADP Hunter fluorescence, primary and confirmatory (AID 624330); assay type: functional
T2 sequence (Q9H0H5 whole entry): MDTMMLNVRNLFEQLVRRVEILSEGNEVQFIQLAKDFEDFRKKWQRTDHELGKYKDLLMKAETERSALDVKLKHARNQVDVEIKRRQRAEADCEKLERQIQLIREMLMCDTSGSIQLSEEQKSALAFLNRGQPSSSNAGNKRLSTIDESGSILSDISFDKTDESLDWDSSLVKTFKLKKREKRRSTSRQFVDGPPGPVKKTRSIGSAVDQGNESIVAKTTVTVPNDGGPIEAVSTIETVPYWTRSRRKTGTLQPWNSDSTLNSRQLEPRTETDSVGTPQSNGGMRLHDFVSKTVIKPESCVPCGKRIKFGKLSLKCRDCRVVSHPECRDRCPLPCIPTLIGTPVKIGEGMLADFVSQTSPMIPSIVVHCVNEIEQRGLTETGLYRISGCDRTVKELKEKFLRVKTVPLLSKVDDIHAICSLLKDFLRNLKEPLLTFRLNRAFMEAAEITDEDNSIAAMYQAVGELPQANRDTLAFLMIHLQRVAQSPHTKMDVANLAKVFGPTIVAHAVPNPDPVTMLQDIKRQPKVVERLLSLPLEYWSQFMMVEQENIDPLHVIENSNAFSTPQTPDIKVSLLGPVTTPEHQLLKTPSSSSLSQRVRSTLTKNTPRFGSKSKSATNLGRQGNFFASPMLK

[3] = HeLa cell cytotoxicity, dose response, cytotoxicity control for MgcRacGAP inhibitor project (AID 624300); assay type: functional
[4] = target: T3, Ubiquitin-conjugating enzyme E2 N (Homo sapiens, UniProt P61088); assay type: functional;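 further: Dose-response confirmation in a TR-FRET assay detecting UBC13-driven polyubiquitin chain formation, inhibition measured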
T3 sequence (P61088 whole entry): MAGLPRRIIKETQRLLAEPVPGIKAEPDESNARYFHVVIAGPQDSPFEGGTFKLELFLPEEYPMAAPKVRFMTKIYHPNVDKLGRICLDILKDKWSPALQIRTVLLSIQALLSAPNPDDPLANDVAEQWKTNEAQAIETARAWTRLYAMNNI

[5] = inhibitors of intracellular T. cruzi replication, confirmation, NIH3T3 host cells, beta-gal luminescence (AID 2044); assay type: functional, cell-based;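 further: intracellular parasites grown in NIH/3T3 mouse fibroblasts as host cells; luminescent beta-galactosidase reporter signal from transgenic T. cruzi replicating inside host cells; inhibitors lower the luminescence signal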
Insulin-degrading enzyme [6] = target: T4, Insulin-degrading enzyme (Homo sapiens, UniProt P14735); assay: activators of endogenous IDE in HEK cells, dose response, cell-based, fluorescence polarization (AID 588439); assay type: functional
T4 sequence (P14735 whole entry): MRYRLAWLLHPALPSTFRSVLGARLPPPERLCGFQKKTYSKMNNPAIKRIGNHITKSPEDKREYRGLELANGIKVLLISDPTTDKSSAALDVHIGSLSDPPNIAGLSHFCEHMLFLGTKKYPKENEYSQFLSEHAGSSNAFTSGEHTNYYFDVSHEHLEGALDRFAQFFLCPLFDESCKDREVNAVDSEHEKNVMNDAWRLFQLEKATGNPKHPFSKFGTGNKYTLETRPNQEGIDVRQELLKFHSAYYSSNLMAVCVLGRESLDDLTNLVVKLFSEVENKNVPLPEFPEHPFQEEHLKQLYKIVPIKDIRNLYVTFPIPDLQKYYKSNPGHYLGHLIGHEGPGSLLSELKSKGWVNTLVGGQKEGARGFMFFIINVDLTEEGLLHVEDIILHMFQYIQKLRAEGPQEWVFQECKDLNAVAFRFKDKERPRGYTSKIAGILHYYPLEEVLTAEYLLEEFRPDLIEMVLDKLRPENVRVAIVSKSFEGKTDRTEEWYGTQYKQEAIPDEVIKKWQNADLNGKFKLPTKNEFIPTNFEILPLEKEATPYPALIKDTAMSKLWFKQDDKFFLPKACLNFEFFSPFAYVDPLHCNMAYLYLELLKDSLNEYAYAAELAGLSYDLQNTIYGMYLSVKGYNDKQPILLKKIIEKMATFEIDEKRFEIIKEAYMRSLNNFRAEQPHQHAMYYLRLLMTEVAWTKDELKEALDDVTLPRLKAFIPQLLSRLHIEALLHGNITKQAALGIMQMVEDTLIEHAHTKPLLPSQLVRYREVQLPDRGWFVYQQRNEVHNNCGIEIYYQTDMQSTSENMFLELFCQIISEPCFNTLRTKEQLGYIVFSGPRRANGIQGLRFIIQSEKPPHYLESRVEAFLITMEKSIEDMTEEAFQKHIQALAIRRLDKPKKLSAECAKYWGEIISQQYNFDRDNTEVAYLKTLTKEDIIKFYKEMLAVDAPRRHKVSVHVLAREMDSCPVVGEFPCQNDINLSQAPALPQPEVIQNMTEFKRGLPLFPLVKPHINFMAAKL

HEK293 [7] = assay: HEK cell cytotoxicity by LDH release, dose response, cytotoxicity control for IDE activator project, fluorescence, HEK cells (AID 588440); assay type: functional, cell-based; settings: Homo sapiens;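 further: cytotoxicity by LDH release measuring loss of membrane integrity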
HEK293 [8] = assay: optical interference in Abeta FP readout, dose response, artefact control for IDE activator project, biochemical, fluorescence polarization (AID 588442); assay type: functional, cell-based; settings: Homo sapiens
[9] = cytotoxicity toward NIH3T3 fibroblasts, dose response, counter-screen, cell-based, ATP luminescence, mouse fibroblasts (AID 2010); assay type: functional;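 further: cells exposed to compound for about 90 hours before reading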
Insulin-degrading enzyme [10] = target: T4, Insulin-degrading enzyme; assay: activators of recombinant IDE enzyme, dose response, counter-screen for IDE activator project, biochemical, fluorescence polarization (AID 588681)
[11] = MC4R antagonists, dose response, counter-screen for LGR2 antagonist project, cell-based, plate reader, cherry pick (AID 743444); assay type: functional;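 further: transfected HEK 293 cells stimulated with alpha-MSH peptide; potency of inhibitors of the alpha-MSH evoked signal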
[12] = inhibitors of SNCA 5'UTR-driven reporter translation, confirmation, H4 neuroglioma cells, luminescence (AID 1988); assay type: functional, cell-based
[13] = HepG2 cell cytotoxicity, dose response, cytotoxicity control, plate reader, cherry-pick, antagonist series (AID 743416); assay type: functional, cell-based
[14] = A549 cell cytotoxicity, dose response, cytotoxicity control, plate reader, cherry-pick, antagonist series (AID 743412); assay type: functional, cell-based
[15] = LGR2 antagonists, dose response, cell-based, HEK293, CRE-luciferase reporter, cherry pick, set 2 (AID 743343); assay type: functional;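 further: transfected cells were stimulated with diluted bursicon conditioned medium after compound addition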
[16] = Luminescence Cell-Based Dose Response HTS to Identify Inhibitors of 5'UTR Stem-Loop Driven Prion Protein mRNA Translation in H4 Neuroglioblastoma Cells. [Related pubchem assays: 1827 (Project Summary), 1813 (Primary HTS)]; assay type: functional
INS1 = assay: beta cell apoptosis inhibitors, cytokine rescue, dose response, luminescence, retest (AID 449756); assay type: functional, cell-based; settings: Rattus norvegicus;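 further: cell death triggered by IL-1 beta plus TNF-alpha plus IFN-gamma mixture; protective hits raise ATP signal compared with cytokine alone wells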
[17] = target: T5, Heat shock factor protein 1 (Mus musculus, UniProt P38532); assay: HSF1 potentiators in luciferase reporter cells, confirmation, cell-based, NIH3T3, luminescence, dose retest (AID 435004); assay type: functional;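 further: stress induced by proteasome inhibitor MG132 added 30 min after compound; luciferase reporter driven by HSF1 response element in NIH3T3 cells; actives raise luminescence as potentiators of the MG132 stress response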
T5 sequence (P38532 whole entry): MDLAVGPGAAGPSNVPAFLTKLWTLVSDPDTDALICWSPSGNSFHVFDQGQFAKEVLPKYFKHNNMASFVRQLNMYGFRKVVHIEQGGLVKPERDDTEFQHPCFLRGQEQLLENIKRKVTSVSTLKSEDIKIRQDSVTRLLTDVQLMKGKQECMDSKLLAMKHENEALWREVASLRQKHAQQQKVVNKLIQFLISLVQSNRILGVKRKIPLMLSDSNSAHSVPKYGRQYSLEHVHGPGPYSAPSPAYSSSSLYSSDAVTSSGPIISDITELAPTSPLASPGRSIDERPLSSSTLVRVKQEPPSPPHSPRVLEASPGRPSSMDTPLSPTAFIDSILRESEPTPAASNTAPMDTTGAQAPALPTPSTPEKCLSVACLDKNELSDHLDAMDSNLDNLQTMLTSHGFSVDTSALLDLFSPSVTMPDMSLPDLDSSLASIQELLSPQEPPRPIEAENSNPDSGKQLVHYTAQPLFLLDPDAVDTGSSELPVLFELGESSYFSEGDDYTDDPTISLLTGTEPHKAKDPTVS

Which IC50 [1] does the source give for `CC(C)c1ccc(N2C=Nc3ccc(C(C)C)cc3C2)cc1` here?
The IC50 was 22.5 µM (inactive).

For `COc1cc(-c2nc3ccc(C)cn3c2Nc2ccc3c(c2)OCCO3)ccc1O`, which IC50 [2] is on record?
The IC50 was 34.2 µM (active).

What about the CC50 [3] of the same molecule?
Its CC50 is 100 µM (active).

For `CCN1CCN(CCNC(=O)c2ccc(/C=C3/Sc4ccccc4N(Cc4cccc(C)c4)C3=O)cc2)CC1`, which IC50 [4] is on record?
Its IC50 is > 20 µM (inactive).

And the EC50 [5]?
Its EC50 is 1.29 µM (active).

And the EC50 (Insulin-degrading enzyme [6])?
The EC50 was 23.2 µM (inactive).

What about the IC50 (HEK293 [7]) of the same molecule?
The IC50 was 20.2 µM (inactive).

What about the EC50 (HEK293 [8]) of the same molecule?
Its EC50 is > 54.7 µM (inactive).

And the EC50 [9]?
The EC50 was 8.45 µM (active).

And the EC50 (Insulin-degrading enzyme [10])?
The EC50 was > 54.7 µM (inactive).

With `COc1ccc(/C=C2\Oc3cc(OCC(=O)N4CCC(C(=O)O)CC4)ccc3C2=O)c(OC)c1OC` as the molecule, how does the EC50 (Insulin-degrading enzyme [6]) read?
The EC50 was 22 µM (inactive).

And the IC50 (HEK293 [7])?
The IC50 was > 89.2 µM (inactive).

And the EC50 (HEK293 [8])?
Its EC50 is 24 µM (inactive).

What about the EC50 (Insulin-degrading enzyme [10]) of the same molecule?
The EC50 was 33 µM (inactive).

With `Cc1ccc(NC(=O)c2ccc3c(c2)OCCO3)cc1C` as the molecule, how does the AC50 [11] read?
The AC50 was 7.61 µM (active).

What about the EC50 [12] of the same molecule?
Its EC50 is 3.68 µM (active).

And the AC50 [13]?
Its AC50 is > 52 µM (inactive).

What about the AC50 [14] of the same molecule?
Its AC50 is > 52 µM (inactive).

What about the AC50 [15] of the same molecule?
Its AC50 is 5.65 µM (active).

What about the EC50 [16] of the same molecule?
Its EC50 is 5.06 µM (active).

Which results are given for `CC(=O)Oc1c(Cl)cc(N(C(C)=O)S(=O)(=O)c2ccccc2)c2ccccc12`?
AC50 (INS1): 4.34 µM (active); EC50 [17]: > 260 µM (inactive); IC50 [1]: 10.1 µM (inactive)
